From ChEMBL document CHEMBL1938231 (J Med Chem, 2011)

The compounds below were run against T1, Tyrosine-protein kinase JAK1 (Homo sapiens, UniProt P23458).
Format: cell-based, Sf9

T1 sequence (P23458 whole entry): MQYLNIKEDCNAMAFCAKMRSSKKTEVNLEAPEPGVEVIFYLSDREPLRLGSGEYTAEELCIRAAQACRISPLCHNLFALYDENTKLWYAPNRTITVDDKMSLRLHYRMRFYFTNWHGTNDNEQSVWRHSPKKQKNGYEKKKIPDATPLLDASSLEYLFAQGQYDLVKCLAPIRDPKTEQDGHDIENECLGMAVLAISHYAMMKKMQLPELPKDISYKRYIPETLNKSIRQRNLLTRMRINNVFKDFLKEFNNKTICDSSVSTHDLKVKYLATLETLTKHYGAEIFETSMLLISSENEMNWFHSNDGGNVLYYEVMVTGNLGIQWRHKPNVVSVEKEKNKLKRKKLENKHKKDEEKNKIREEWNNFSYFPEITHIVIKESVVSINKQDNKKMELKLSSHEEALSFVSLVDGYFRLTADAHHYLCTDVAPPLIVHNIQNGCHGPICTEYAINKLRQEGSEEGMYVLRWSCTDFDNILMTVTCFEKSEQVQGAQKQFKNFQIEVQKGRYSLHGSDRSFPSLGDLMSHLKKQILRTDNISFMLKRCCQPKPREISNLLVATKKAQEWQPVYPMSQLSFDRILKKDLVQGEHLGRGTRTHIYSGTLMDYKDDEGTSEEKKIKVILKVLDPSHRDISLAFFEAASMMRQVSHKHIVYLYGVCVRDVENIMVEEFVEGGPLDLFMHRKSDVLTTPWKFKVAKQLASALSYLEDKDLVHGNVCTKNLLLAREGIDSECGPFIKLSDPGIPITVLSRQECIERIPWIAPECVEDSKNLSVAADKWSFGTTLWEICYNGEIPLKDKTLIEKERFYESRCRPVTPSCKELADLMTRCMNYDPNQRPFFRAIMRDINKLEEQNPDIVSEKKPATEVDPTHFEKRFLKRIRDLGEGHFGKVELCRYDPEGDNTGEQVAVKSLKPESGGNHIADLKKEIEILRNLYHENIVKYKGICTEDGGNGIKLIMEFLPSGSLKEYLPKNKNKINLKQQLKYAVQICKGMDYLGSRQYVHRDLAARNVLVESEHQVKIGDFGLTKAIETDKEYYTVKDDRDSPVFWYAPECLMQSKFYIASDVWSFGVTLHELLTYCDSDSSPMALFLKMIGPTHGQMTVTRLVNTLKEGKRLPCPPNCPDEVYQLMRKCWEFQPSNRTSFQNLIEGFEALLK

Going from `NC(=O)c1cnc(N)c2cc(-c3ccc(N4CCOCC4)cc3)sc12` to `CNC(=O)c1cnc(N)c2cc(-c3ccc(N4CCOCC4)cc3)sc12`, the IC50 rises from 39 nM to 211 nM (5.4-fold).

First: CCNC(=O)c1cnc(N)c2cc(-c3ccc(N4CCOCC4)cc3)sc12
Second: CN(C)C(=O)c1cnc(N)c2cc(-c3ccc(N4CCOCC4)cc3)sc12
The IC50 of the first is 23-fold lower: 133 nM for the first, 3100 nM for the second.

`Nc1ncc(C(=O)Nc2ccccc2)c2sc(-c3ccc(N4CCOCC4)cc3)cc12` and `Nc1ncc(C(=O)NCc2ccccc2)c2sc(-c3ccc(N4CCOCC4)cc3)cc12` are within 1.5-fold of each other in IC50: 406 nM for the first, 307 nM for the second.

First: CC(C)(C)NC(=O)c1cnc(N)c2cc(-c3ccc(N4CCOCC4)cc3)sc12
Second: CNC(=O)c1cnc(N)c2cc(-c3ccc(C)cc3)sc12
The IC50 of the first is 23-fold higher: 8820 nM for the first, 377 nM for the second.

In the case of `CNC(=O)c1cnc(N)c2cc(-c3ccccc3)sc12`, the IC50 is reported as 290 nM.

These compounds were tested against T2, Tyrosine-protein kinase JAK3 (Homo sapiens, UniProt P52333).
T2 sequence (P52333 whole entry): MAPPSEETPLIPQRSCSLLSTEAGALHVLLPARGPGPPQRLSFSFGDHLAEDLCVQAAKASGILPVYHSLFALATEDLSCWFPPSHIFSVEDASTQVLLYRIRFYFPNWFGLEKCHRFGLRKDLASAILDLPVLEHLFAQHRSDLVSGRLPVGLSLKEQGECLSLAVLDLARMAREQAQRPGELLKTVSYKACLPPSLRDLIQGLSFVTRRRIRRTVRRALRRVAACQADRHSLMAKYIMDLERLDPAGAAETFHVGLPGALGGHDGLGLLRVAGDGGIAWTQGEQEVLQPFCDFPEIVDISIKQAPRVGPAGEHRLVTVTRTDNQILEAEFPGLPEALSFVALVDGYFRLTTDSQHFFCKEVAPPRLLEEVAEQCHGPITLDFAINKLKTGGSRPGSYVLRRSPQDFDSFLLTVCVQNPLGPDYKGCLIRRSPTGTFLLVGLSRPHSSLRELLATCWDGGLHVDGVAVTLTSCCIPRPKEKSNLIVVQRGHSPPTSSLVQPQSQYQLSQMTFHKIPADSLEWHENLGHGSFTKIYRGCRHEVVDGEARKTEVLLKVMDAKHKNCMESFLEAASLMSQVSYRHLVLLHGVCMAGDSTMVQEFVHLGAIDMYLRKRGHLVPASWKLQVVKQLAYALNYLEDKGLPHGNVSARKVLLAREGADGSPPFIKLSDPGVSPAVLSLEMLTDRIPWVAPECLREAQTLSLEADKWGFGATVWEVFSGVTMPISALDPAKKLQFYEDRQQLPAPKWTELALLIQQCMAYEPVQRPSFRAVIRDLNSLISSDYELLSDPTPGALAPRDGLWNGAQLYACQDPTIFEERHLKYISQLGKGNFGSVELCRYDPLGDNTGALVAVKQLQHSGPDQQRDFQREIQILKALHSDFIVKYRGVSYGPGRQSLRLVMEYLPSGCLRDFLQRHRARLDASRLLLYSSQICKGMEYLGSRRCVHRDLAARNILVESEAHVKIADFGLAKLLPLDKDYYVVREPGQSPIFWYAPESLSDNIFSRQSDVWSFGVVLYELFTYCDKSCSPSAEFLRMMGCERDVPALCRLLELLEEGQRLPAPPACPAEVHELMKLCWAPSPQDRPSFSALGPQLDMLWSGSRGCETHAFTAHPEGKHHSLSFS
Format: cell-based, Sf9

Going from `NC(=O)c1cnc(N)c2cc(-c3ccc(N4CCOCC4)cc3)sc12` to `CNC(=O)c1cnc(N)c2cc(-c3ccc(N4CCOCC4)cc3)sc12`, the IC50 rises from 18 nM to 1340 nM (74-fold).

First: CCNC(=O)c1cnc(N)c2cc(-c3ccc(N4CCOCC4)cc3)sc12
Second: CN(C)C(=O)c1cnc(N)c2cc(-c3ccc(N4CCOCC4)cc3)sc12
The IC50 of the first is 1.7-fold lower: 967 nM for the first, 1660 nM for the second. The first is the more potent here.

Going from `Nc1ncc(C(=O)Nc2ccccc2)c2sc(-c3ccc(N4CCOCC4)cc3)cc12` to `Nc1ncc(C(=O)NCc2ccccc2)c2sc(-c3ccc(N4CCOCC4)cc3)cc12`, the IC50 rises from 2870 nM to over 125000 nM.

Compared with `CC(C)(C)NC(=O)c1cnc(N)c2cc(-c3ccc(N4CCOCC4)cc3)sc12`, `CNC(=O)c1cnc(N)c2cc(-c3ccc(C)cc3)sc12` is 19-fold lower in IC50: 10300 nM for the first, 545 nM for the second.

`CNC(=O)c1cnc(N)c2cc(-c3ccccc3)sc12` gave an IC50 of 767 nM.

The compounds below were run against T3, Non-receptor tyrosine-protein kinase TYK2 (Homo sapiens, UniProt P29597).
T3 sequence (P29597 whole entry): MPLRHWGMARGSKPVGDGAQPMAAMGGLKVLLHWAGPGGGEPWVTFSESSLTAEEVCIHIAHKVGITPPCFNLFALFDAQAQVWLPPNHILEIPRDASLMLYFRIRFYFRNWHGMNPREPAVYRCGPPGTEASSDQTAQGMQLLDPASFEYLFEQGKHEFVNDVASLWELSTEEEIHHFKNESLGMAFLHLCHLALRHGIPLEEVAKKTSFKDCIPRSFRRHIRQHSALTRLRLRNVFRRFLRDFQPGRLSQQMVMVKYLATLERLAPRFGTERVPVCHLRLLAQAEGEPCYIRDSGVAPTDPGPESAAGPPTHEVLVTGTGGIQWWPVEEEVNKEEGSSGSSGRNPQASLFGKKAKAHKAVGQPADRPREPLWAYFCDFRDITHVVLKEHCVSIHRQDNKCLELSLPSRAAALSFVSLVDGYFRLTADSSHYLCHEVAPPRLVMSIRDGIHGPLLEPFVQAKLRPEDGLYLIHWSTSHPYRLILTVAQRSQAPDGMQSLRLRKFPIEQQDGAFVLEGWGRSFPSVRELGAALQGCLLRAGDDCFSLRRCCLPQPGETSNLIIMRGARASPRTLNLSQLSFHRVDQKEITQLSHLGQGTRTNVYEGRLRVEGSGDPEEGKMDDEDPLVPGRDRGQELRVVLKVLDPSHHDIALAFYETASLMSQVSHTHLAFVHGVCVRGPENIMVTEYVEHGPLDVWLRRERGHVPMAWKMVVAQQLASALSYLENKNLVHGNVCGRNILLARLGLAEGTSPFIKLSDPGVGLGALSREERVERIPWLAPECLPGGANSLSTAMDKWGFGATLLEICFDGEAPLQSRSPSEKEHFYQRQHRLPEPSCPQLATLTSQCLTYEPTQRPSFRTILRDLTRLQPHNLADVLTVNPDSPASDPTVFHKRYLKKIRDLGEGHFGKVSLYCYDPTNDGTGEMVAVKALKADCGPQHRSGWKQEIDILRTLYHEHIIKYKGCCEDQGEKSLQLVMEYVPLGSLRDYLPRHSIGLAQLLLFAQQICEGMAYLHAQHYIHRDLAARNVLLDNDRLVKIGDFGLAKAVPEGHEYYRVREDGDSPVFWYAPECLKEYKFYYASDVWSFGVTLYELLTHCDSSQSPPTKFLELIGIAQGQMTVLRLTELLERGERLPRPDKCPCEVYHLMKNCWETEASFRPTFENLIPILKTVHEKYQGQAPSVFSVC
Format: cell-based, Sf9

First: NC(=O)c1cnc(N)c2cc(-c3ccc(N4CCOCC4)cc3)sc12
Second: CNC(=O)c1cnc(N)c2cc(-c3ccc(N4CCOCC4)cc3)sc12
The IC50 of the first is 20-fold lower: 66 nM for the first, 1330 nM for the second. The first is the more potent here.

First: CCNC(=O)c1cnc(N)c2cc(-c3ccc(N4CCOCC4)cc3)sc12
Second: CN(C)C(=O)c1cnc(N)c2cc(-c3ccc(N4CCOCC4)cc3)sc12
The IC50 of the first is 4.8-fold lower: 1070 nM for the first, 5150 nM for the second. The first is the more potent here.

`Nc1ncc(C(=O)Nc2ccccc2)c2sc(-c3ccc(N4CCOCC4)cc3)cc12` and `Nc1ncc(C(=O)NCc2ccccc2)c2sc(-c3ccc(N4CCOCC4)cc3)cc12` are within 1.5-fold of each other in IC50: 1990 nM for the first, 2600 nM for the second.

Compared with `CC(C)(C)NC(=O)c1cnc(N)c2cc(-c3ccc(N4CCOCC4)cc3)sc12`, `CNC(=O)c1cnc(N)c2cc(-c3ccc(C)cc3)sc12` is 7.9-fold lower in IC50: 6980 nM for the first, 888 nM for the second. The second is the more potent here.

With `CNC(=O)c1cnc(N)c2cc(-c3ccccc3)sc12` the IC50 was 937 nM.

Target: T1, Tyrosine-protein kinase JAK1
Format: cell-based, BaF3
Remark: another data set of the same source

Compared with `NC(=O)c1cnc(N)c2cc(-c3ccc(N4CCOCC4)cc3)sc12`, `CNC(=O)c1cnc(N)c2cc(-c3ccc(N4CCOCC4)cc3)sc12` is 2.4-fold higher in IC50: 748 nM for the first, 1810 nM for the second.

With `CNC(=O)c1cnc(N)c2cc(-c3ccc(C)cc3)sc12` the IC50 was over 25000 nM.

Target: T2, Tyrosine-protein kinase JAK3
Format: cell-based, BaF3
Remark: another data set of the same source

`NC(=O)c1cnc(N)c2cc(-c3ccc(N4CCOCC4)cc3)sc12` and `CNC(=O)c1cnc(N)c2cc(-c3ccc(N4CCOCC4)cc3)sc12` cannot be ordered by IC50: over 25000 nM for the first, over 25000 nM for the second.

`CNC(=O)c1cnc(N)c2cc(-c3ccccc3)sc12` and `CNC(=O)c1cnc(N)c2cc(-c3ccc(C)cc3)sc12` cannot be ordered by IC50: over 25000 nM for the first, over 25000 nM for the second.

Target: T3, Non-receptor tyrosine-protein kinase TYK2
Format: cell-based, BaF3
Remark: another data set of the same source

`NC(=O)c1cnc(N)c2cc(-c3ccc(N4CCOCC4)cc3)sc12` and `CNC(=O)c1cnc(N)c2cc(-c3ccc(N4CCOCC4)cc3)sc12` cannot be ordered by IC50: over 25000 nM for the first, over 25000 nM for the second.

`CNC(=O)c1cnc(N)c2cc(-c3ccccc3)sc12` and `CNC(=O)c1cnc(N)c2cc(-c3ccc(C)cc3)sc12` cannot be ordered by IC50: over 25000 nM for the first, over 25000 nM for the second.

These compounds were tested against T4, JAK3/JAK1 (Homo sapiens, UniProt P23458+P52333).
T4 sequence (P23458 whole entry, one chain of several): as the sequence (P23458 whole entry) above
Format: cell-based

`NC(=O)c1cnc(N)c2cc(-c3ccc(N4CCOCC4)cc3)sc12` was tested, and the IC50 was 548 nM.

Target: T4, JAK3/JAK1
Format: cell-based, Blood
Remark: another data set of the same source

Compound `NC(=O)c1cnc(N)c2cc(-c3ccc(N4CCOCC4)cc3)sc12` has an IC50 of over 25000 nM.
